Experimental data from PMC12027839, “Aging-Associated Amyloid-β Plaques and Neuroinflammation in Bottlenose Dolphins (Tursiops truncatus) and Novel Cognitive Health-Supporting Roles of Pentadecanoic Acid (C15:0)” (International Journal of Molecular Sciences, 2025).

How the values were obtained:
[1] = biological target: T1, Glutamate, Metabotropic, mGlu5 (Homo sapiens, UniProt P41594); experiment: biochemical; parameters: Eurofins Alzheimer's MoA LeadHunter radioligand binding assays; percent inhibition of specific binding, mean of duplicates; settings: Ligand or Substrate=[3H]Quisqualic acid
T1 construct: gene GRM5
Procedure: (§1) Standardized enzyme and radioligand binding assays were used by an independent third party (Eurofins Discovery, Taiwan) to evaluate C15:0 across ten concentrations and up to 50 µM for activities as part of the Eurofins Discovery Alzheimer’s MoA LeadHunter Panel. Methods employed in this study were adapted from the scientific literature to maximize reliability and reproducibility. Reference standards were run as an integral part of each assay to ensure the validity of the results obtained. IC50 values were determined by a non-linear, least squares regression analysis using MathIQTM (ID Business Solutions Ltd., Woking, UK). This study included evaluated inhibition of the following targets by C15:0 using enzyme assays (Cholinesterase, Acetyl, ACES; Cholinesterase, Butyryl, CHLE; Peptidase, CTSB (Cathepsin B); Cyclooxygenase COX-1; Cyclooxygenase COX-2; Myeloperoxidase; IDO1; Monoamine Oxidase MAO-A; Monoamine Oxidase MAO-B; Peptidase, Endothelin Converting Enzyme-1 (ECE-1); Peptidase, Metalloproteinase, Neutral Endopeptidase; Peptidase, BACE1 (beta-Secretase); Protein Tyrosine Kinase, Fyn; Protein Serine/Threonine Kinase, GSK3B; Protein Serine/Threonine Kinase, MAPK14 (p38alpha); Protein Tyrosine Phosphatase, DUSP22; Fatty Acid Amide Hydrolase (FAAH); Nitric Oxide Synthetase, Inducible (iNOS); Catechol-O-Methyl Transferase (COMT); and Lipoxygenase 15-LOX-2) and radioligand binding assays (Adenosine A2A; Transporter, GABA; GABAA, Ro-15-1788, Hippocampus; Glutamate, AMPA; Glutamate, NMDA, MK-801; Glutamate, NMDA, Polyamine; Glutamate, Metabotropic, mGlu5; Histamine H3; Chemokine CX3CR1; Muscarinic M1; Nicotinic Acetylcholine alpha7, Methyllycaconitine; Serotonin (5-Hydroxytryptamine) 5-HT1A, WAY-100635; Serotonin (5-Hydroxytryptamine) 5-HT4B; Serotonin (5-Hydroxytryptamine) 5-HT6; Sodium Channel, Site 1; Somatostatin sst4; Sigma 2; Sigma1; Platelet Activating Factor (PAF)). Biochemical assay results were presented as the percent inhibition of specific binding or activity. […] Primary screening was conducted in duplicate with semi-quantitative data (e.g., estimated IC50). Significant responses (≥50% inhibition) were noted.

[2] = biological target: T2, Nicotinic Acetylcholine alpha7, Methyllycaconitine (Rattus norvegicus, UniProt Q05941); experiment: biochemical; parameters: Eurofins Alzheimer's MoA LeadHunter radioligand binding assays; percent inhibition of specific binding, mean of duplicates; settings: Ligand or Substrate=[3H]Methyllycaconitine
T2 construct: gene Chrna7; methyllycaconitine site
Procedure: as §1

Histamine H3 = biological target: T3, Histamine H3 (Homo sapiens, UniProt Q9Y5N1); experiment: biochemical; parameters: Eurofins Alzheimer's MoA LeadHunter radioligand binding assays; percent inhibition of specific binding, mean of duplicates; settings: Ligand or Substrate=[3H]N-alpha-Methylhistamine (NAMH)
T3 construct: gene HRH3
Procedure: as §1

Adenosine A2A = biological target: T4, Adenosine A2A (Homo sapiens, UniProt P29274); experiment: biochemical; parameters: Eurofins Alzheimer's MoA LeadHunter radioligand binding assays; percent inhibition of specific binding, mean of duplicates; settings: Ligand or Substrate=[3H]CGS-21680
T4 construct: gene ADORA2A
Procedure: as §1

[3] = biological target: T5, Platelet Activating Factor (PAF) (Homo sapiens, UniProt P25105); experiment: biochemical; parameters: Eurofins Alzheimer's MoA LeadHunter radioligand binding assays; percent inhibition of specific binding, mean of duplicates; settings: Ligand or Substrate=[3H]PAF
T5 construct: gene PTAFR
Procedure: as §1

Muscarinic M1 = biological target: T6, Muscarinic M1 (Homo sapiens, UniProt P11229); experiment: biochemical; parameters: Eurofins Alzheimer's MoA LeadHunter radioligand binding assays; percent inhibition of specific binding, mean of duplicates; settings: Ligand or Substrate=[3H]N-Methylscopolamine
T6 construct: gene CHRM1
Procedure: as §1

[4] = biological target: T7, Serotonin (5-Hydroxytryptamine) 5-HT4B (Homo sapiens, UniProt Q13639); experiment: biochemical; parameters: Eurofins Alzheimer's MoA LeadHunter radioligand binding assays; percent inhibition of specific binding, mean of duplicates; settings: Ligand or Substrate=[3H]GR-113808
T7 construct: gene HTR4; isoform 5-HT4B
Procedure: as §1

Sigma1 = biological target: T8, Sigma1 (Homo sapiens, UniProt Q99720); experiment: biochemical; parameters: Eurofins Alzheimer's MoA LeadHunter radioligand binding assays; percent inhibition of specific binding, mean of duplicates; settings: Ligand or Substrate=[3H]Pentazocine
T8 construct: gene SIGMAR1
Procedure: as §1

[5] = biological target: T9, Serotonin (5-Hydroxytryptamine) 5-HT6 (Homo sapiens, UniProt P50406); experiment: biochemical; parameters: Eurofins Alzheimer's MoA LeadHunter radioligand binding assays; percent inhibition of specific binding, mean of duplicates; settings: Ligand or Substrate=[3H]Lysergic acid diethylamide (LSD)
T9 construct: gene HTR6
Procedure: as §1

Chemokine CX3CR1 = Chemokine CX3CR1 (Homo sapiens, UniProt P49238); experiment: biochemical; parameters: Eurofins Alzheimer's MoA LeadHunter radioligand binding assays; percent inhibition of specific binding, mean of duplicates; settings: Ligand or Substrate=[125I]Fractalkine
Procedure: as §1

Somatostatin sst4 = biological target: T10, Somatostatin sst4 (Homo sapiens, UniProt P31391); experiment: biochemical; parameters: Eurofins Alzheimer's MoA LeadHunter radioligand binding assays; percent inhibition of specific binding, mean of duplicates; settings: Ligand or Substrate=[125I]Tyr11-Somatostatin 14
T10 construct: gene SSTR4
Procedure: as §1

[6] = biological target: T11, Serotonin (5-Hydroxytryptamine) 5-HT1A, WAY-100635 (Homo sapiens, UniProt P08908); experiment: biochemical; parameters: Eurofins Alzheimer's MoA LeadHunter radioligand binding assays; percent inhibition of specific binding, mean of duplicates; settings: Ligand or Substrate=[3H]WAY100635
T11 construct: gene HTR1A; WAY-100635
Procedure: as §1

Cyclooxygenase COX-1 = biological target: T12, Cyclooxygenase COX-1 (Homo sapiens, UniProt P23219); experiment: biochemical; parameters: Eurofins Alzheimer's MoA LeadHunter enzyme assays; percent inhibition of enzyme activity, mean of duplicates; settings: Ligand or Substrate=Arachidonic acid
T12 construct: gene PTGS1
Procedure: as §1

[7] = biological target: Catechol-O-Methyl Transferase (COMT) (Sus scrofa, UniProt Q99028); experiment: biochemical; parameters: Eurofins Alzheimer's MoA LeadHunter enzyme assays; percent inhibition of enzyme activity, mean of duplicates; settings: Ligand or Substrate=Esculetin
Procedure: as §1

Monoamine Oxidase MAO-B = biological target: T13, Monoamine Oxidase MAO-B (Homo sapiens, UniProt P27338); experiment: biochemical; parameters: Eurofins Alzheimer's MoA LeadHunter enzyme assays; percent inhibition of enzyme activity, mean of duplicates; settings: Ligand or Substrate=Kynuramine
T13 construct: gene MAOB
Procedure: as §1

IDO1 = IDO1 (Homo sapiens, UniProt P14902); experiment: biochemical; parameters: Eurofins Alzheimer's MoA LeadHunter enzyme assays; percent inhibition of enzyme activity, mean of duplicates; settings: Ligand or Substrate=L-tryptophan (L-Trp)
Procedure: as §1

[8] = biological target: Protein Tyrosine Kinase, Fyn (Homo sapiens, UniProt P06241); experiment: biochemical; parameters: Eurofins Alzheimer's MoA LeadHunter enzyme assays; percent inhibition of enzyme activity, mean of duplicates; settings: Ligand or Substrate=Poly(Glu:Tyr)
Procedure: as §1

Myeloperoxidase = biological target: T14, Myeloperoxidase (Homo sapiens, UniProt P05164); experiment: biochemical; parameters: Eurofins Alzheimer's MoA LeadHunter enzyme assays; percent inhibition of enzyme activity, mean of duplicates; settings: Ligand or Substrate=Guaiacol
T14 construct: gene MPO
Procedure: as §1

[9] = biological target: T15, Fatty Acid Amide Hydrolase (FAAH) (Homo sapiens, UniProt O00519); experiment: biochemical; parameters: Eurofins Alzheimer's MoA LeadHunter enzyme assays; percent inhibition of enzyme activity, mean of duplicates; settings: Ligand or Substrate=AMC arachidonoyl amide
Procedure: as §1

[10] = biological target: Protein Serine/Threonine Kinase, MAPK14 (p38alpha) (Homo sapiens, UniProt Q16539); experiment: biochemical; parameters: Eurofins Alzheimer's MoA LeadHunter enzyme assays; percent inhibition of enzyme activity, mean of duplicates; settings: Ligand or Substrate=Myelin Basic Protein (MBP)
Procedure: as §1

Monoamine Oxidase MAO-A = biological target: T16, Monoamine Oxidase MAO-A (Homo sapiens, UniProt P21397); experiment: biochemical; parameters: Eurofins Alzheimer's MoA LeadHunter enzyme assays; percent inhibition of enzyme activity, mean of duplicates; settings: Ligand or Substrate=Kynuramine
T16 construct: gene MAOA
Procedure: as §1

Cyclooxygenase COX-2 = biological target: T17, Cyclooxygenase COX-2 (Homo sapiens, UniProt P35354); experiment: biochemical; parameters: Eurofins Alzheimer's MoA LeadHunter enzyme assays; percent inhibition of enzyme activity, mean of duplicates; settings: Ligand or Substrate=Arachidonic acid
T17 construct: gene PTGS2
Procedure: as §1

Lipoxygenase 15-LOX-2 = biological target: T18, Lipoxygenase 15-LOX-2 (Homo sapiens, UniProt O15296); experiment: biochemical; parameters: Eurofins Alzheimer's MoA LeadHunter enzyme assays; percent inhibition of enzyme activity, mean of duplicates; settings: Ligand or Substrate=AMC arachidonoyl amide
T18 construct: gene ALOX15B
Procedure: as §1

[11] = biological target: Protein Serine/Threonine Kinase, GSK3B (Homo sapiens, UniProt P49841); experiment: biochemical; parameters: Eurofins Alzheimer's MoA LeadHunter enzyme assays; percent inhibition of enzyme activity, mean of duplicates; settings: Ligand or Substrate=Phospho-glycogen synthase peptide-2
Procedure: as §1

[12] = biological target: T19, Cholinesterase, Acetyl, ACES (Homo sapiens, UniProt P22303); experiment: biochemical; parameters: Eurofins Alzheimer's MoA LeadHunter enzyme assays; percent inhibition of enzyme activity, mean of duplicates; settings: Ligand or Substrate=Acetylthiocholine
T19 construct: gene ACHE
Procedure: as §1

[13] = biological target: Protein Tyrosine Phosphatase, DUSP22 (Homo sapiens, UniProt Q9NRW4); experiment: biochemical; parameters: Eurofins Alzheimer's MoA LeadHunter enzyme assays; percent inhibition of enzyme activity, mean of duplicates; settings: Ligand or Substrate=DiFMUP
Procedure: as §1

[14] = biological target: T20, Peptidase, Metalloproteinase, Neutral Endopeptidase (Homo sapiens, UniProt P08473); experiment: biochemical; parameters: Eurofins Alzheimer's MoA LeadHunter enzyme assays; percent inhibition of enzyme activity, mean of duplicates; settings: Ligand or Substrate=Mca-R-P-P-G-F-S-A-F-K(Dnp)-OH
T20 construct: gene MME
Procedure: as §1

[15] = biological target: T21, Peptidase, Endothelin Converting Enzyme-1 (ECE-1) (Homo sapiens, UniProt P42892); experiment: biochemical; parameters: Eurofins Alzheimer's MoA LeadHunter enzyme assays; percent inhibition of enzyme activity, mean of duplicates; settings: Ligand or Substrate=Mca-[…]Dnp)
T21 construct: gene ECE1
Procedure: as §1

[16] = biological target: T22, Cholinesterase, Butyryl, CHLE (Homo sapiens, UniProt P06276); experiment: biochemical; parameters: Eurofins Alzheimer's MoA LeadHunter enzyme assays; percent inhibition of enzyme activity, mean of duplicates; settings: Ligand or Substrate=S-Butyrylthiocholine
T22 construct: gene BCHE
Procedure: as §1

[17] = biological target: Peptidase, BACE1 (beta-Secretase) (Homo sapiens, UniProt P56817); experiment: biochemical; parameters: Eurofins Alzheimer's MoA LeadHunter enzyme assays; percent inhibition of enzyme activity, mean of duplicates; settings: Ligand or Substrate=MOCAc-S-E-V-N-L-D-A-E-F-R-K(Dnp)-R-R-NH2
Procedure: as §1

[18] = biological target: Peptidase, CTSB (Cathepsin B) (Homo sapiens, UniProt P07858); experiment: biochemical; parameters: Eurofins Alzheimer's MoA LeadHunter enzyme assays; percent inhibition of enzyme activity, mean of duplicates; settings: Ligand or Substrate=Boc-Leu-Arg-Arg-AMC
Procedure: as §1

[19] = biological target: T15, Fatty Acid Amide Hydrolase (FAAH); experiment: Enzyme assay with human recombinant FAAH (Sf21 cells), AMC arachidonoyl amide substrate, spectrofluorimetric, […] concentrations; type: biochemical
[20] = biological target: T23, Monoamine oxidase B (MAO-B) (Homo sapiens, UniProt P27338); experiment: Enzyme assay with human recombinant MAO-B (insect cells), kynuramine substrate, spectrofluorimetric, […] concentrations; type: biochemical
T23 construct: gene MAOB

T15 sequence (O00519 whole entry): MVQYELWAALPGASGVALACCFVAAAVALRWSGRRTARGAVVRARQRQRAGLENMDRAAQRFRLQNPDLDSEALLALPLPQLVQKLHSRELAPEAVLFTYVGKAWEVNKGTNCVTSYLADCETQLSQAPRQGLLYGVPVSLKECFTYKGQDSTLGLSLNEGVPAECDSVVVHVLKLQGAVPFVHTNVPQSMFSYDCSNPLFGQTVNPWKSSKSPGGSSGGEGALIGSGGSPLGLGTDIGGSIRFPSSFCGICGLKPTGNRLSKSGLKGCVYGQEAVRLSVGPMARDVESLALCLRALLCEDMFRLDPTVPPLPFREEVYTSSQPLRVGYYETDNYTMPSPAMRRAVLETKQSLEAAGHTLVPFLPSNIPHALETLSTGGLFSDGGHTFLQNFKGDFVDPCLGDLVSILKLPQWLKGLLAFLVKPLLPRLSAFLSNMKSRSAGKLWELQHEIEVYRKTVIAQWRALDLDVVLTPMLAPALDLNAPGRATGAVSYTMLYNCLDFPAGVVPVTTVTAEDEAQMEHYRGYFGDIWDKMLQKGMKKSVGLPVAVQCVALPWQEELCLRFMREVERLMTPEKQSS
T4 sequence (P29274 whole entry): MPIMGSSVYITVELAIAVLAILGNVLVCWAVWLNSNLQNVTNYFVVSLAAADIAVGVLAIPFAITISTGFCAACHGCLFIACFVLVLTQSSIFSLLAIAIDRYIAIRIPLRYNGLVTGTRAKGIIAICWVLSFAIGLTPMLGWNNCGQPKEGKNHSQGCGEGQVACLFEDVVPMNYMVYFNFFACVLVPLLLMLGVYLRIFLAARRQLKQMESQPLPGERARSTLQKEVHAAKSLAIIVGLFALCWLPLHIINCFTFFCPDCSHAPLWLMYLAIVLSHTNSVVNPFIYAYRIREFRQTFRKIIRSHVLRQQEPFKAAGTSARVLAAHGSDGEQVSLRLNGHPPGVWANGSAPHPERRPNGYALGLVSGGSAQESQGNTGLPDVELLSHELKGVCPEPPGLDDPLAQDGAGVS
T8 sequence (Q99720 whole entry): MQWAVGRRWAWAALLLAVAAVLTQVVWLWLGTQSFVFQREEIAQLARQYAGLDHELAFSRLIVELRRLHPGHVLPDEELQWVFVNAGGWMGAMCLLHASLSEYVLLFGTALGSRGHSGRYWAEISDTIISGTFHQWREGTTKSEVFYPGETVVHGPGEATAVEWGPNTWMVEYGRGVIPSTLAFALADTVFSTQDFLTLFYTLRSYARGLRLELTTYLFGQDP
T19 sequence (P22303 whole entry): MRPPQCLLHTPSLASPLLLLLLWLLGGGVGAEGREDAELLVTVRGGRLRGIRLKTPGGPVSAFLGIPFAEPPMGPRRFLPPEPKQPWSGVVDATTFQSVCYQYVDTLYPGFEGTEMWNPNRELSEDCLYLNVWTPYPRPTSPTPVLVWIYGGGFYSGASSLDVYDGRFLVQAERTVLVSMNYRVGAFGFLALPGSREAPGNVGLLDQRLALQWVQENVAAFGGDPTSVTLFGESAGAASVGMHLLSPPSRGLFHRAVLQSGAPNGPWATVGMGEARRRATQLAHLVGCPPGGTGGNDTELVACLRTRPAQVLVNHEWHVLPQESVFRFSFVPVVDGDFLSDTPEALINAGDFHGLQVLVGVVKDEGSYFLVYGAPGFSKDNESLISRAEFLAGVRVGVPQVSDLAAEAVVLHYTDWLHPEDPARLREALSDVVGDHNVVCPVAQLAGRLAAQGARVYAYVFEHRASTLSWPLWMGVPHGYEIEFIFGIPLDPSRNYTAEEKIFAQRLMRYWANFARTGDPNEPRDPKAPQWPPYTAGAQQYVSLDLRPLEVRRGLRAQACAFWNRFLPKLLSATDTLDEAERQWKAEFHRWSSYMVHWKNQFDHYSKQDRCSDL
T1 sequence (P41594 whole entry): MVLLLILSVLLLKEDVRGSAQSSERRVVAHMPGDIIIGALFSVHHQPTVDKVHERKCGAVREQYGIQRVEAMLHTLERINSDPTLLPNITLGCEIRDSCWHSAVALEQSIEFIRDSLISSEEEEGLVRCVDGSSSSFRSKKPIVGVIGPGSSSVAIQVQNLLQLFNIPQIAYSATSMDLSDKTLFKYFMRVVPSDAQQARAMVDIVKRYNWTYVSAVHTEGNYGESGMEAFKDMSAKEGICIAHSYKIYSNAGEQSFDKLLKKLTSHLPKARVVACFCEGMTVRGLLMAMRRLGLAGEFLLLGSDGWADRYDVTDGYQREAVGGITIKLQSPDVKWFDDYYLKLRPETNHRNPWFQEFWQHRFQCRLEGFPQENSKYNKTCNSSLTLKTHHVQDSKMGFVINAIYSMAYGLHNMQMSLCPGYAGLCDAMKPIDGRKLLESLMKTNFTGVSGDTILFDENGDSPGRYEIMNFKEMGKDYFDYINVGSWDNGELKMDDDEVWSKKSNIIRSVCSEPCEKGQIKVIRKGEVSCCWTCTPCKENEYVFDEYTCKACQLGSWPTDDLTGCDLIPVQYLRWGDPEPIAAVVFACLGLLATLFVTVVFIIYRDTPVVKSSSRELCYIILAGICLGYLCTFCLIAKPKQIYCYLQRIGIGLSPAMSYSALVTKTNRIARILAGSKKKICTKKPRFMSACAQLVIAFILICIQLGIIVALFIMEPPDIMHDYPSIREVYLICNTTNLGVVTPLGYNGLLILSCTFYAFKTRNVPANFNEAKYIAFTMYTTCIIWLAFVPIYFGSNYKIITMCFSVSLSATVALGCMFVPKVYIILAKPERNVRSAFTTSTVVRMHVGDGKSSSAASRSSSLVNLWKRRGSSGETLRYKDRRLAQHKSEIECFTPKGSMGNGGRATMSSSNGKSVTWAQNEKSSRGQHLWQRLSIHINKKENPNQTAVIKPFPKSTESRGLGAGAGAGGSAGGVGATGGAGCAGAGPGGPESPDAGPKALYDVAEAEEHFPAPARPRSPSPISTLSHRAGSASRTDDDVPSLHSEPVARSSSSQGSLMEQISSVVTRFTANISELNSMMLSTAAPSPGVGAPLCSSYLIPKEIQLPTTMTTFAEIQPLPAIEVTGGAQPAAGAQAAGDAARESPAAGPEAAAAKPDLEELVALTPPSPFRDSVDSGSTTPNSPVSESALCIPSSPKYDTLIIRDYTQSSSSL
Chain of Catechol-O-Methyl Transferase (COMT) (Q99028 whole entry): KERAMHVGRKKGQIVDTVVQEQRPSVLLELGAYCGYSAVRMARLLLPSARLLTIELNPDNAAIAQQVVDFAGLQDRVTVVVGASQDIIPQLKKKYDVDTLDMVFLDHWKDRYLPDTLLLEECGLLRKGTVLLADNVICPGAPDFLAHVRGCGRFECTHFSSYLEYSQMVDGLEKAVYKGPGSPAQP
T18 sequence (O15296 whole entry): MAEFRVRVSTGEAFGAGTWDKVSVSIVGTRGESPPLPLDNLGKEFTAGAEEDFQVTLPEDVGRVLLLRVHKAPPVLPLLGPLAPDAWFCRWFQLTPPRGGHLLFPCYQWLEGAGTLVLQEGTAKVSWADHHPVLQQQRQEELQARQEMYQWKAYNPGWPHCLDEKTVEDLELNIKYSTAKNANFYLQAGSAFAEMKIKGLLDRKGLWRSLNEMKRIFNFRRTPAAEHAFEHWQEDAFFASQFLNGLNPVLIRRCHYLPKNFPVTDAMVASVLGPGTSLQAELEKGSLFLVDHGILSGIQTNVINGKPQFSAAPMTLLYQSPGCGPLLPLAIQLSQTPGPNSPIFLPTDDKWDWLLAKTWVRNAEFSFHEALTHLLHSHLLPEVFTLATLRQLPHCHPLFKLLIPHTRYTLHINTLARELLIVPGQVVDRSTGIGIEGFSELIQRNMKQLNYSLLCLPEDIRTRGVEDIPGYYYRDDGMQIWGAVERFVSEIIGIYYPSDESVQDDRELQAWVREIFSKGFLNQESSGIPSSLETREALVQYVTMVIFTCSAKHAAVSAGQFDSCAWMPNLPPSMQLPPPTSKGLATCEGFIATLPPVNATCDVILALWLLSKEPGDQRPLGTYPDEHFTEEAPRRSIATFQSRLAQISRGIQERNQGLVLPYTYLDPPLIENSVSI
T9 sequence (P50406 whole entry): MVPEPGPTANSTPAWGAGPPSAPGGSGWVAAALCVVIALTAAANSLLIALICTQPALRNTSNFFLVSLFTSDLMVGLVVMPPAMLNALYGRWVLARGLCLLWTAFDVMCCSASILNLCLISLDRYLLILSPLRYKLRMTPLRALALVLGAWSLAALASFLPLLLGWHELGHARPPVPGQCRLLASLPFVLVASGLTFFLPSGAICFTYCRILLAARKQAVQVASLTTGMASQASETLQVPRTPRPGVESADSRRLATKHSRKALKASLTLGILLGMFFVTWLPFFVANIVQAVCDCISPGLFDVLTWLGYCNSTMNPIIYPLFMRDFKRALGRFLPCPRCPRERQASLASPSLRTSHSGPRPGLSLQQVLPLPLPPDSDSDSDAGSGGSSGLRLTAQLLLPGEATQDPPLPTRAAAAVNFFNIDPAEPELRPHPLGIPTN
Chain of Peptidase, BACE1 (beta-Secretase) (P56817 whole entry): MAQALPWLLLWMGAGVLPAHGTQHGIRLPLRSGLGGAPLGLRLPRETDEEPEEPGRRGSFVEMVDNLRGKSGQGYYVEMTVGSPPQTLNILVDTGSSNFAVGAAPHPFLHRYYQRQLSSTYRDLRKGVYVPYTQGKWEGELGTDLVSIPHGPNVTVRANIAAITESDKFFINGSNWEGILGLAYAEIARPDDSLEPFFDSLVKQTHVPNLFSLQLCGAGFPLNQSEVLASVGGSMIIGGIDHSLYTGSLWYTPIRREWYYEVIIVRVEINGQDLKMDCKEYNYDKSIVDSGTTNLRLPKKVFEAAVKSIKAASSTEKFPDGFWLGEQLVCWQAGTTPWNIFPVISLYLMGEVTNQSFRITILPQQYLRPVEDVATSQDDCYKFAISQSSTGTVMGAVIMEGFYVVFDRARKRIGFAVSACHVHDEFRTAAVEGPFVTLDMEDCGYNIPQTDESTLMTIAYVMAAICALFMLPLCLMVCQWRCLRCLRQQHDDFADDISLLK

`CCCCCCCCCCCCCCC(=O)O` [C15:0, Pentadecanoic acid] showed an inhibition at 20 µM [1] of 0%, an inhibition at 20 µM [2] of -9.1% and an inhibition at 20 µM (Histamine H3) of 1.7%. It also gave an inhibition at 20 µM (Adenosine A2A) of 10.7%, an inhibition at 20 µM [3] of -6.6% and an inhibition at 20 µM (Muscarinic M1) of 9%. The inhibition at 20 µM [4] was -1.7%, the inhibition at 20 µM (Sigma1) was -18.6% and the inhibition at 20 µM [5] was -16.1%. The inhibition at 20 µM (Chemokine CX3CR1) was 5.3%, the inhibition at 20 µM (Somatostatin sst4) was -4.4% and the inhibition at 20 µM [6] was 3.9%. The inhibition at 20 µM (Cyclooxygenase COX-1) was -17%, the inhibition at 20 µM [7] was 1.5% and the inhibition at 20 µM (Monoamine Oxidase MAO-B) was 64.7%. The inhibition at 20 µM (IDO1) was 39.4%, the inhibition at 20 µM [8] was -16.2% and the inhibition at 20 µM (Myeloperoxidase) was 44.8%. The inhibition at 20 µM [9] was 70.3%, the inhibition at 20 µM [10] was -14.8% and the inhibition at 20 µM (Monoamine Oxidase MAO-A) was 11.4%. It also gave an inhibition at 20 µM (Cyclooxygenase COX-2) of 5.3%, an inhibition at 20 µM (Lipoxygenase 15-LOX-2) of 8% and an inhibition at 20 µM [11] of 15%. For the same compound, the inhibition at 20 µM [12] was 44.7%, the inhibition at 20 µM [13] was -28.1% and the inhibition at 20 µM [14] was 2.1%. The inhibition at 20 µM [15] was 7.1%, the inhibition at 20 µM [16] was 2.5% and the inhibition at 20 µM [17] was 2.4%. The inhibition at 20 µM [18] was -35.2%, the IC50 [19] was 2.51 µM and the IC50 [20] was 19.4 µM.
